Several values for one entry are separate records, joined by “and”; a condition that tells them apart may be missing. Equal entries are not always repeated.
What was measured:
[1] = Stability testing of steroids and NSAIDS combined with 0.6% povidone iodine at room temperature
Procedure: Steroids and NSAIDS were mixed with PVP-I at the concentration of 0.6% w/w on Day 1. The resultant mixtures will be split to glass vials and stored at room temperature. fluorometholone alcohol, medrysone, prednisone sodium phosphate, rimexolone, hydrocortisone, hydrocortisone acetate, lodoxamide tromethamine, nepafenac, bromfenac, and ketorolac. Testing timepoints included day 0 (Time Zero), and week 4. Tests were conducted at room temperature. The testing samples were analyzed using liquid chromatography and tandem mass spectrometry (LC/MS/MS) methods at Day 0, and Week 4. The steroids and NSAIDS standards were also analyzed and steroids and NSAIDS levels in testing samples were determined.
For Tables VIII-XIII, a: Nominal concentration in HPLC samples; b: Calculated concentration in HPLC samples; c: Dilution factor; d: Calculated concentration in stability samples; e: Spiked 50 μL of H2O and stored at room temperature without PVP-I.

[2] = Stability testing of steroids combined with povidone iodine (PVP-I, 0.4%), HPLC/UV with LC-MS/MS confirmation; conditions: for degradation products observed: two week and/or one month samples in the presence of PVP-I 0.4%
Procedure: PVP-I was prepared in water at the concentration of 100 mg/mL (10%). One milliliter of the solution, suspension, or emulsion was mixed with 40 μL of 10% PVP-I in 1.5 mL amber glass vials, followed by storage under both room temperature and 40° C. for 2 weeks and one month. The resultant samples in the presence of PVP-I were analyzed using HPLC. The four steroid levels were measured against the reference standard samples stored under room temperature in the absence of PVP-I (0.4%).
Weigh 1 g of PVP-I and dissolve in 10 mL of water.
Aliquot 1 mL of ophthalmic solution (USP, 0.1%) into eight amber HPLC vials to give the following samples:
Used the resultant samples as time zero samples for HPLC analysis.
The same as Method 1 except the gradient was changed as follows: […]
The software provided with the HPLC system (LCSolution™ software, version 1.23, installed by SHIMADZU) was used to integrate the peak area.
The measured peak area was converted into concentrations (μg/mL) using the following equation: […]
HPLC Methods: The same as HPLC Method 1, 2, and 3 under Section 2.4.
The Day 0, Two Week, and One Month stability test samples were analyzed with reference standard samples (stored at room temperature in the absence of PVP I) using HPLC Method 1. The sample in the absence of PVP-I with the same concentration of dexamethasone phosphate as those stability samples at the presence of PVP-I was stored in the same stability chamber at 40° C. for one month as control sample. The control sample was analyzed under the same conditions. The concentrations of dexamethasone phosphate in the stability samples were calculated. The HPLC/UV chromatograms of all reference standards and stability testing samples are depicted in FIG. 6 to FIG. 13.
(§1) The Day 0, Two Week, and One Month stability test samples were analyzed with reference standard samples (stored at room temperature in the absence of PVP I) using HPLC Method 2. The sample in the absence of PVP-I with the same concentration of prednisolone acetate as those stability samples at the presence of PVP-I was stored in the same stability chamber at 40° C. for two week and one month as control samples. The control samples were analyzed under the same conditions. The concentrations of prednisolone acetate in the stability samples were calculated. The data were summarized in Table V. The HPLC/UV chromatograms of all reference standards and stability testing samples are depicted in FIG. 18 to FIG. 23.
as §1, with “3.” for “2.”, “loteprednol etabonate” for “prednisolone acetate”, “calculated.” for “calculated. The data were summarized in Table V.”, “28” for “18”, “33.” for “23.”
as §1, with “3.” for “2.”, “difluprednate” for “prednisolone acetate”, “calculated.” for “calculated. The data were summarized in Table V. The HPLC/UV chromatograms of all reference standards and stability testing samples are depicted in FIG. 18 to FIG. 23.”

[3] = Day 0, room temperature, 0.6% PVP-I, mean of replicates
[4] = Day 0, room temperature, 0.6% PVP-I, single replicates
[5] = four weeks control, spiked 50 μL of H2O, room temperature without PVP-I
[6] = four weeks, room temperature, 0.6% PVP-I, mean of replicates
[7] = four weeks, room temperature, 0.6% PVP-I, single replicates
[8] = 2 weeks, 40° C., with PVP-I 0.4%
[9] = 2 weeks, room temp, with PVP-I 0.4%
[10] = one month, 40° C., with PVP-I 0.4%, mean of two runs
[11] = one month, 40° C., with PVP-I 0.4%, single samples
[12] = one month, room temp, with PVP-I 0.4%
[13] = 2 weeks, 40° C. control, stored without PVP-I
[14] = Day 0, room temp, with PVP-I 0.4%, mean of replicates
[15] = Day 0, room temp, with PVP-I 0.4%, single replicates
[16] = one month, 40° C. control, stored without PVP-I

Compound | % of Std [1, 3] [%] | % of Std [1, 4] | % of Day 0 [1, 5] [%] | % of Std [1, 5] [%] | % of Day 0 [1, 6] [%] | % of Std [1, 6] [%] | % of Day 0 [1, 7] | % of Std [1, 7] | % of Day 0 [2, 8] [%] | % of Day 0 [2, 9] [%] | % of Day 0 [2, 11] | % of Day 0 [2, 12] [%] | further results
Nc1c(CC(=O)O)cccc1C(=O)c1ccc(Br)cc1 [Bromfenac, bromfenac] | 98.86 | 99.74% and 97.96% | 101.19 | 100.03 | 99.37 | 98.23 | 100.01% and 98.73% | 98.87% and 97.6% | – | – | – | – | –
C[C@@H]1C[C@H]2[C@@H]3CCC4=CC(=O)C=C[C@]4(C)[C@@]3(F)[C@@H](O)C[C@]2(C)[C@@]1(O)C(=O)COP(=O)([O-])[O-].[Na+].[Na+] [Dexamethasone Sodium Phosphate] | – | – | – | – | – | – | – | – | 84.57 | 83.04 | 84.42% and 83.76% | 84.24 | stability in the presence of PVP-I (result in words) ([2]; PVP-I 0.4%, room temperature and 40° C., up to one month): not stable; % of Day 0 [2, 10]: 84.09%; % of Std [2, 10]: 87.00%; degradation products observed [2]: three additional peaks; degradation products observed ([2]; listed as dexamethasone phosphate): Three degradation products (D1, D2, and D3) were observed
CCCC(=O)O[C@]1(C(=O)COC(C)=O)CC[C@H]2[C@@H]3C[C@H](F)C4=CC(=O)C=C[C@]4(C)[C@@]3(F)[C@@H](O)C[C@@]21C [Difluprednate] | – | – | – | – | – | – | – | – | 99.30 | 103.23 | 100.24% | 104.47 | % of Day 0 [2, 13]: 89.50%; % of Std [2, 13]: 89.50%; % of Std [2, 8]: 95.57%; % of Std [2, 9]: 99.36%; % of Std [2, 14]: 96.25%; % of Std [2, 15]: 95.78% and 96.72%; % of Day 0 [2, 16]: 97.86%; % of Std [2, 16]: 97.86%; % of Std [2, 11]: 96.48%; % of Std [2, 12]: 100.56%
CC(=O)[C@@]1(O)CC[C@H]2[C@@H]3C[C@H](C)C4=CC(=O)C=C[C@]4(C)[C@@]3(F)[C@@H](O)C[C@@]21C [Fluorometholone, fluorometholone] | 101.28 | 101.42% and 101.14% | 97.97 | 99.22 | 98.44 | 99.7 | 98.03% and 98.87% | 99.28% and 100.14% | – | – | – | – | –
CC(=O)OCC(=O)[C@@]1(O)CC[C@H]2[C@@H]3CCC4=CC(=O)CC[C@]4(C)[C@H]3[C@@H](O)C[C@@]21C [Hydrocortisone acetate, hydrocortisone acetate] | 100.57 | 101.62% and 99.52% | 101.08 | 101.66 | 100.95 | 101.53 | 100.58% and 101.33% | 101.15% and 101.91% | – | – | – | – | –
CCOC(=O)O[C@]1(C(=O)OCCl)CC[C@H]2[C@@H]3CCC4=CC(=O)C=C[C@]4(C)[C@H]3[C@@H](O)C[C@@]21C [Loteprednol Etabonate] | – | – | – | – | – | – | – | – | 100.07 | 101.43 | 96.02% | 100.72 | % of Day 0 [2, 13]: 101.69%; % of Std [2, 13]: 101.69%; % of Std [2, 8]: 100.54%; % of Std [2, 9]: 101.91%; % of Std [2, 14]: 100.48%; % of Std [2, 15]: 101.00% and 99.95%; % of Day 0 [2, 16]: 97.64%; % of Std [2, 16]: 97.64%; % of Std [2, 11]: 96.48%; % of Std [2, 12]: 101.20%
NC(=O)Cc1cccc(C(=O)c2ccccc2)c1N [Nepafenac, nepafenac] | 98.7 | 98.22% and 99.18% | 100.06 | 98.76 | 97.2 | 95.94 | 97.83% and 96.58% | 96.56% and 95.32% | – | – | – | – | –
CC(=O)OCC(=O)[C@@]1(O)CC[C@H]2[C@@H]3CCC4=CC(=O)C=C[C@]4(C)[C@H]3[C@@H](O)C[C@@]21C [Prednisolone Acetate] | – | – | – | – | – | – | – | – | 96.60 | 99.24 | 96.79% | 95.66 | % of Day 0 [2, 13]: 100.74%; % of Std [2, 13]: 100.74%; % of Std [2, 8]: 101.08%; % of Std [2, 9]: 103.84%; % of Std [2, 14]: 104.64%; % of Std [2, 15]: 104.83% and 104.45%; % of Day 0 [2, 16]: 100.29%; % of Std [2, 16]: 100.29%; % of Std [2, 11]: 101.28%; % of Std [2, 12]: 100.10%
C[C@]12C=CC(=O)C=C1CC[C@@H]1[C@@H]2C(=O)C[C@@]2(C)[C@H]1CC[C@]2(O)C(=O)COP(=O)([O-])[O-].[Na+].[Na+] [Prednisone sodium phosphate, prednisone sodium phosphate] | 97.76 | 97.93% and 97.59% | 102.87 | 100.57 | 95.66 | 93.52 | 95.1% and 96.23% | 92.97% and 94.07% | – | – | – | – | –
CCC(=O)[C@@]1(C)[C@H](C)C[C@H]2[C@@H]3CCC4=CC(=O)C=C[C@]4(C)[C@H]3[C@@H](O)C[C@@]21C [Rimexolone, rimexolone] | 99.67 | 98.83% and 100.5% | 97.41 | 97.09 | 99.88 | 99.55 | 100.23% and 99.53% | 99.9% and 99.2% | – | – | – | – | –
N#Cc1cc(NC(=O)C(=O)O)c(Cl)c(NC(=O)C(=O)O)c1.NC(CO)(CO)CO.NC(CO)(CO)CO [lodoxamide, lodoxamide tromethamine] | – | – | – | – | – | – | – | – | – | – | – | – | stability in PVP-I (result in words) ([1]; 0.6% PVP-I, room temperature, week 4): appeared to be stable

Reference: patent US20150038473A1, “STABLE POVIDONE-IODINE COMPOSITIONS WITH STEROIDS OR NON-STEROIDAL ANTI-INFLAMMATORIES” (FORESIGHT BIOTHERAPEUTICS, INC., priority 2011, published 2015)
